From ChEMBL document CHEMBL3808339, “Identification, synthesis and evaluation of SARS-CoV and MERS-CoV 3C-like protease inhibitors” (Bioorg Med Chem, 2016)

Each compound was assayed against Replicase polyprotein 1ab (Severe acute respiratory syndrome-related coronavirus, UniProt P0C6X7).

CC(C)(C)c1ccc(N2N=C(c3ccccc3)/C(=C/c3ccc(-c4cc(Cl)ccc4C(=O)O)o3)C2=O)cc1 and CC(C)(C)c1ccc(N2N=C(c3ccccc3)/C(=C/c3ccc(-c4ccccc4C(=O)O)o3)C2=O)cc1 are within 1.5-fold of each other in IC50: 5.8 µM for the first, 8.6 µM for the second.

First: O=C(O)c1ccc(Cl)cc1-c1ccc(/C=C2\C(=O)N(c3ccc(F)cc3)N=C2c2ccccc2)o1
Second: O=C(O)c1ccccc1-c1ccc(/C=C2\C(=O)N(c3ccc(F)cc3)N=C2c2ccccc2)o1
The IC50 of the first is 1.9-fold lower: 20.2 µM for the first, 37.5 µM for the second. The first is the more potent here.

First: O=C(O)c1cccc(N2N=C(c3ccccc3)/C(=C/c3ccc(-c4cc(Cl)ccc4C(=O)O)o3)C2=O)c1
Second: O=C(O)c1ccc(Cl)cc1-c1ccc(/C=C2\C(=O)N(c3ccccc3)N=C2c2ccccc2)o1
The IC50 of the first is 2.7-fold higher: 44.7 µM for the first, 16.4 µM for the second. The second is the more potent here.

Compared with COc1ccc(N2N=C(c3ccccc3)/C(=C/c3ccc(-c4ccccc4C(=O)O)o3)C2=O)cc1, CC(C)c1ccc(N2N=C(c3ccccc3)/C(=C/c3ccc(-c4ccccc4C(=O)O)o3)C2=O)cc1 is 2.6-fold lower in IC50: 30.7 µM for the first, 11.7 µM for the second. The second is the more potent here.

First: CC1=NN(c2cccc(C(=O)O)c2)C(=O)/C1=C\c1ccc(-c2ccccc2)o1
Second: O=C(O)c1cccc(N2N=C(c3ccccc3)/C(=C/c3ccc(-c4ccccc4)o3)C2=O)c1
The IC50 of the first is higher: greater than 50 µM for the first, 6.4 µM for the second.

Compared with N#Cc1ccc(N2N=C(c3ccccc3)/C(=C/c3ccc(-c4ccccc4C(=O)O)o3)C2=O)cc1, O=C(O)c1ccccc1-c1ccc(/C=C2\C(=O)N(c3ccccc3)N=C2c2ccccc2)o1 is 2.2-fold higher in IC50: 18.7 µM for the first, 41.2 µM for the second.

O=C(O)c1cccc(N2N=C(c3ccccc3)/C(=C/c3ccco3)C2=O)c1 and O=C1/C(=C\c2ccc(-c3ccccc3)o2)C(c2ccccc2)=NN1c1ccccc1 cannot be ordered by IC50: greater than 50 µM for the first, greater than 50 µM for the second.

CC1=NN(c2ccccc2)C(=O)/C1=C\c1ccc(-c2cc(Cl)ccc2C(=O)O)o1 and CC1=NN(c2cccc(C(=O)O)c2)C(=O)/C1=C\c1ccc(-c2cc(Cl)ccc2C(=O)O)o1 cannot be ordered by IC50: greater than 50 µM for the first, greater than 50 µM for the second.

For O=C(O)c1cccc(N2N=C(C(F)(F)F)/C(=C/c3ccc(-c4cc(Cl)ccc4C(=O)O)o3)C2=O)c1, the IC50 was greater than 50 µM.

These compounds were tested against Neuraminidase (Influenza A virus, UniProt B4URF0) (assay: Inhibition of Influenza A virus H5N1 neuraminidase preincubated for 10 mins followed by addition of 2'-(4-methylumbelliferyl)-alpha-D-N-acetylneuraminic acid as fluorogenic substrate measured after 15 mins by fluorescence analysis).
Chain of Neuraminidase (B4URF0 whole entry): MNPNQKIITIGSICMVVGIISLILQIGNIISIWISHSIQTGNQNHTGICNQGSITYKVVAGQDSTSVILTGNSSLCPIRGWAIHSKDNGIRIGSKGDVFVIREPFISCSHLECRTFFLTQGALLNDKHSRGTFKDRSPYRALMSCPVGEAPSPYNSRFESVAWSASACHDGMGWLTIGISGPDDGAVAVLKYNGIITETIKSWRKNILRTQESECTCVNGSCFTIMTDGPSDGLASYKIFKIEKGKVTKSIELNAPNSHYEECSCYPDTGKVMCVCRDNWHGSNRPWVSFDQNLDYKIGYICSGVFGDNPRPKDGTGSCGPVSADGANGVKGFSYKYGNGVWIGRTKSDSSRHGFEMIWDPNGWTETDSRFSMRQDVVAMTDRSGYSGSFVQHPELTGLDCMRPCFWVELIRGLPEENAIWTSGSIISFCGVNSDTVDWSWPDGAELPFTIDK

O=C(O)c1ccc(Cl)cc1-c1ccc(/C=C2\C(=O)N(c3ccc(F)cc3)N=C2c2ccccc2)o1 and O=C(O)c1ccc(Cl)cc1-c1ccc(/C=C2\C(=O)N(c3ccccc3)N=C2c2ccccc2)o1 are within 1.5-fold of each other in IC50: 2.9 µM for the first, 2.8 µM for the second.

With O=C(O)c1ccccc1-c1ccc(/C=C2\C(=O)N(c3ccccc3)N=C2c2ccccc2)o1 the IC50 was 13.7 µM.
